In patent US9259482B2, “Conjugates of polymers having a therapeutically active agent and an angiogenesis targeting moiety attached thereto and uses thereof in the treatment of angiogenesis related diseases” (Ramot at Tel-Aviv University Ltd., priority 2008, dated 2016):
Like-named read-outs stand apart in the source and are kept apart here. Non-standard residues stand in square brackets, D forms with d.

Legend:
HUVEC [1] = experiment: Endothelial cell adhesion assay on fibrinogen coated plates; assay type: cell-based, human; settings: for effect of free peptides on HUVEC adhesion: free peptide at 50 μM; for inhibition of HUVEC adhesion to fibrinogen: with a similar amount of PTX
Procedure: The ability of E-[c(RGDfk)2] and E-c(RGDfk) moieties (SEQ ID NOs: 2 and 41) in the conjugates to inhibit endothelial attachment to cellular matrix after conjugation, was assessed using an adhesion assay. Flat bottom 96-well culture plates (Nunc, Denmark) were coated with 0.5 μg/well fibrinogen overnight at 4° C. After washing three times with Phosphate buffered saline (PBS), the wells were blocked with 1% bovine serum albumin (BSA) for 1 hour at 37° C. and washed three times again with PBS. HUVEC were harvested in phosphate-buffered saline (137 mM NaCl, 2.7 mM KCl, 4.3 mM Na2HPO4, 1.4 mM KH2PO4, pH 7.3) with 2.5 mM EDTA and resuspended in EBM-2 serum-free media (Clonetics). HUVEC were incubated for 30 minutes, at room temperature, with the tested compounds. The treated HUVEC were plated at 5×10^4 cells per well and were allowed to attach for 1 hour at 37° C. After incubation, the unattached cells were removed by rinsing the wells with PBS. The attached cells were fixed with 3.7% formaldehyde, stained with 0.5% crystal violet and were imaged using Nikon TE2000E inverted microscope integrated with Nikon DS5 cooled CCD camera by 4× objective, brightfield technique. The number of attached cells was quantified with NIH ImageJ processing and analysis software. Non-specific binding was determined by adhesion of HUVEC cells, which were not incubated with any of the tested compounds, to BSA-coated plates.

HUVEC [2] = experiment: cells; assay type: cell-based, human; settings: for IC50: HUVEC
Procedure: (§1) The anti-angiogenesis and anti-proliferative activity of the conjugates described herein was evaluated by the effect of the conjugates on the proliferation of HUVEC, U87 and PANC02 cells.
(§2) HUVEC were plated onto 24-well plate (1×10^4 cells/well) in endothelial cell basal medium 2 (EBM-2; Cambrex, USA) supplemented with 5% fetal bovine serum (FBS). Following 24 hours of incubation (37° C.; 5% CO2) medium was replaced with Endothelial cell growth medium-2 (EGM-2; Cambrex, USA). U87 and PANC02 cells were plated onto 96 well plate (2×10^3 cells/well) in DMEM supplemented with 5% FBS and incubated for 24 hours (37° C.; 5% CO2). Following 24 hours of incubation the medium was replaced with DMEM containing 10% FBS. Cells were challenged with the tested compounds at serial concentrations for 72 hours. After incubation the number of HUVEC were counted by Coulter Counter and U87, and PANC02 cells were counted by XTT respectively.

HUVEC [3] = experiment: Migration assay of HUVEC towards VEGF; assay type: cell-based, human; settings: equivalent concentrations of 100 nM PTX, conjugate with 5 mol % E-[c(RGDfk)2], 2.6 mol % PTX, FIG. 14
Procedure: The anti-angiogenesis activity of the conjugates was evaluated by examining the effect of the conjugates on the ability of HUVEC to migrate toward the Vascular Endothelial Growth Factor (VEGF).
Cell migration assay was performed using modified 8 μm Boyden chambers Transwells® (Costar Inc., USA) coated with 10 μg/ml fibronectin HUVEC (15×10^4 cells/100 μl) were challenged with the tested compounds that were added to the upper chamber of the transwells for 2 hours. Following incubation, cells were allowed to migrate to the underside of the chamber for 4 hours in the presence or absence of VEGF (20 ng/ml) in the lower chamber. Cells were then fixed and stained (Hema 3 Stain System; Fisher Diagnostics, USA). The stained migrated cells were imaged using Nikon TE2000E inverted microscope integrated with Nikon DS5 cooled CCD camera by 10× objective, brightfield illumination. Migrated cells from the captured images per membrane were counted using NIH image software. Migration was normalized to the percent of migration toward VEGF of HUVEC which were not incubated with any compound. The extent of migration is inversely proportional to the anti-angiogenesis activity of the compounds.

HUVEC [4] = experiment: Capillary-like tube formation assay; assay type: cell-based, human; settings: equivalent concentrations of 10 nM (PTX) and 19 nM (E-[c(RGDfk)2]), conjugate with 5 mol % E-[c(RGDfk)2], 2.6 mol % PTX, FIG. 16B
Procedure: The anti-angiogenesis activity of the conjugates was evaluated by the effect of the conjugates on the ability of HUVEC cells to form capillary-like tube structures.
The surface of 24-well plates was coated with Matrigel matrix (50 μl/well) (BD Biosciences, USA) on ice and was then allowed to polymerize at 37° C. for 30 minutes. HUVEC (3×10^4 cells) were challenged with the tested compounds, and were seeded on coated plates in the presence of complete EGM-2 medium. After 8 hours of incubation (37° C.; 5% CO2), wells were imaged using Nikon TE2000E inverted microscope integrated with Nikon DS5 cooled CCD camera by 4× objective, brightfield technique. During the tube formation assay endothelial cells directionally migrate to align, branch and form polygonal networks (i.e. tube like structures). The extent of capillary-like tube structures is inversely proportional to the anti-angiogenesis activity of the compounds.

[5] = system: U87 human glioblastoma cells; experiment: Cell proliferation assay, U87; assay type: cell-based
Procedure: as §1, §2

[6] = system: PANC02 murine pancreatic tumor cells; experiment: Cell proliferation assay, PANC02; assay type: cell-based
Procedure: as §1, §2

αvβ3 integrin receptor = molecular target: T1, αvβ3 integrin receptor (Homo sapiens, UniProt P05106+P06756); experiment: αvβ3 interaction with fluorescently labeled conjugates in HUVEC; assay type: cell-based
T1 construct: endogenous in cells; host or cells: HUVEC
T1 sequence (P06756 31-889 limits assumed): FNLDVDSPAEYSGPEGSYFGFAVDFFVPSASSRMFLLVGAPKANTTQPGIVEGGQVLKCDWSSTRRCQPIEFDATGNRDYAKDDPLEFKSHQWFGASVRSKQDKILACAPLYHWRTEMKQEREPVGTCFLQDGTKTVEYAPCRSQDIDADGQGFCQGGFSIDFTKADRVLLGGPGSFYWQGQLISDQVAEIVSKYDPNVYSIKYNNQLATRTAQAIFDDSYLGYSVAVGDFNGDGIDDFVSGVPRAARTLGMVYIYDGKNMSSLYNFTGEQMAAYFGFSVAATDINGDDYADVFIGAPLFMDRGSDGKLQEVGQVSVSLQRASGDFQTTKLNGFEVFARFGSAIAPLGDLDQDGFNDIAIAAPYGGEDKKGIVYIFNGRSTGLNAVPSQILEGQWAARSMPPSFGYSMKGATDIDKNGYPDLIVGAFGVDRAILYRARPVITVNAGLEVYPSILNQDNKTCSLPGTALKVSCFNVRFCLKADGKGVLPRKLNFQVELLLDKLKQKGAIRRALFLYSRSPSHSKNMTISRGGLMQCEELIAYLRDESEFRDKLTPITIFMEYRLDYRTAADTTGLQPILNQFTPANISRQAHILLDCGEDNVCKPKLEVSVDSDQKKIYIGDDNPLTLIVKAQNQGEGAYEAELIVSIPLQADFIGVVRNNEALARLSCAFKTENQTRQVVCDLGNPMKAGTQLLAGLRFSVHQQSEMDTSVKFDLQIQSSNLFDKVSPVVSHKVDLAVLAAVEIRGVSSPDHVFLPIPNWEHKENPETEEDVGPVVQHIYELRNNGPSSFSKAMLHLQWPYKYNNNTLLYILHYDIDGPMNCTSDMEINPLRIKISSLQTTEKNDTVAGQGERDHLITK
T1 sequence (P06756 891-1048 limits assumed): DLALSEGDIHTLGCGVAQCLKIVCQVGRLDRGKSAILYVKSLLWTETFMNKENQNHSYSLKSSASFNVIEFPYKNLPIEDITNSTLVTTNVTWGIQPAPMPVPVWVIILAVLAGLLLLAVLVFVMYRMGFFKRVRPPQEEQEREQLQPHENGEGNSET
T1 sequence (P05106 27-788): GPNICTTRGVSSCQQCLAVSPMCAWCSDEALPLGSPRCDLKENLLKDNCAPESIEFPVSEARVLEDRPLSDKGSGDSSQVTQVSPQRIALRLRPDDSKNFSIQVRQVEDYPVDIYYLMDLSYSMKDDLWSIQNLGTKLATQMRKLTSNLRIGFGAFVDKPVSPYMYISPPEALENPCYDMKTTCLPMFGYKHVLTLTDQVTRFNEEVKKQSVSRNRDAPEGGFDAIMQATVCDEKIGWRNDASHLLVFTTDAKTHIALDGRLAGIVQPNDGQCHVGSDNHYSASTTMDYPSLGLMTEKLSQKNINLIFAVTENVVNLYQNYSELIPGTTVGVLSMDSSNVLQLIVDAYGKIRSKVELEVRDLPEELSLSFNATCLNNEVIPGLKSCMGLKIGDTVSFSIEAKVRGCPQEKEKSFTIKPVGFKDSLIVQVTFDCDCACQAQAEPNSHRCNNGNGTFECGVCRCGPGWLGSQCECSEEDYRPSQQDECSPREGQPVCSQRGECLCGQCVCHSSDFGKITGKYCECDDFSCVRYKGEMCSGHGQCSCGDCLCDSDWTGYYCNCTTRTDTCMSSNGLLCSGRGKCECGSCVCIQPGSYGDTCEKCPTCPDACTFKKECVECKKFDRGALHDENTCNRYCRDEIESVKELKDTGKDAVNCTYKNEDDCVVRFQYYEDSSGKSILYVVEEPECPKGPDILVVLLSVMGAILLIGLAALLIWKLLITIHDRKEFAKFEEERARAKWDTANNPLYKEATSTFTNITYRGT
Procedure: A fluorescence probe, Oregon Green-cadaverine (OG), was conjugated to PGA conjugates through the free carboxylic groups (see Example 5 for synthesis description), in order to study the cellular uptake and trafficking.
HUVEC were plated onto 6 mm plates (5×10^5 cells/plate) in EBM-2 (Cambrex, USA) supplemented with 5% FBS. Following 24 hours of incubation (37° C.; 5% CO2), cells were challenged with either PGA-OG, PGA-c(RADfk)-OG (SEQ ID NO: 24) or PGA-E-[c(RGDfk)2]-OG (SEQ ID NO:25) diluted in EGM-2 medium for 5, 10, 15, 30 or 60 minutes. Cells were then washed in PBS (×3), harvested with PBS containing 2.5 mM EDTA and analyzed with the ImageStream 100 imaging flow cytometer (Amnis). Analysis was performed using IDEAS software.

N=C(N)NCCC[C@@H]1NC(=O)[C@H](CCCCNC(=O)CC[C@H](N)C(=O)NCCCC[C@@H]2NC(=O)[C@@H](Cc3ccccc3)NC(=O)[C@H](CC(=O)O)NC(=O)CNC(=O)[C@H](CCCNC(=N)N)NC2=O)NC(=O)[C@@H](Cc2ccccc2)NC(=O)[C@H](CC(=O)O)NC(=O)CNC1=O [E-[c(RGDfk)2]]
effect of free peptides on HUVEC adhesion (HUVEC [1]): completely abrogated HUVEC adhesion | effect on HUVEC proliferation (HUVEC [2]; FIG. 12A): only at high concentrations | inhibition of the migration of HUVEC towards VEGF (HUVEC [3]): about 30%

CC(=O)O[C@H]1C(=O)[C@@]2(C)[C@H]([C@H](OC(=O)c3ccccc3)[C@]3(O)C[C@H](OC(=O)[C@H](O)[C@@H](NC(=O)c4ccccc4)c4ccccc4)C(C)=C1C3(C)C)[C@]1(OC(C)=O)CO[C@@H]1C[C@@H]2O [PTX, Paclitaxel]
effect on endothelial cell adhesion (HUVEC [1]; free PTX, PGA and combinations, FIG. 15): negligent effect | IC50 (HUVEC [2]; Homo sapiens, nM PTX, FIG. 12A, read-out: IC50 of HUVEC proliferation): ~0.01 nM | IC50 (HUVEC [2]; Homo sapiens, 72 hours, bis-cyclic RGD compounds (X = 2), NA = did not reach IC50 in the concentrations used, 'a -- b' = bell-shaped curve, read-out: IC50 (nM) of PGA- PTX-E-[c(RGDfk)2] (SEQ ID NO: 18) 2.6 mol % PTX, 5 mol % RGD): 0.01 nM | IC50 (HUVEC [2]; Homo sapiens, 72 hours, bis-cyclic RGD compounds (X = 2), NA = did not reach IC50 in the concentrations used, 'a -- b' = bell-shaped curve, read-out: IC50 (nM) of PGA- PTX-E-[c(RGDfk)2] (SEQ ID NO: 18) 5 mol % PTX, 3.9 mol % RGD): 0.009 nM | IC50 (HUVEC [2]; Homo sapiens, 72 hours, experiment with monocyclic RGD compounds (X = 1), NA = did not reach IC50 in the concentrations used, 'a -- b' = bell-shaped curve, read-out: IC50 (nM) of PGA- PTX-E-c(RGDfk) (SEQ ID NO: 16) 2.1 mol % PTX, 5 mol % RGD): 0.0085 nM | inhibition at 0.1 µM (HUVEC [3]; Homo sapiens, HUVEC): ~55% | inhibition at 0.01 µM (HUVEC [4]; Homo sapiens, HUVEC, read-out: inhibition of the formation of tubular structures of HUVEC): ~50% | IC50 ([5]; Homo sapiens, U87, 72 hours, bis-cyclic RGD compounds (X = 2), NA = did not reach IC50 in the concentrations used, 'a -- b' = bell-shaped curve, read-out: IC50 (nM) of PGA- PTX-E-[c(RGDfk)2] (SEQ ID NO: 18) 5 mol % PTX, 3.9 mol % RGD): 0.045 nM | IC50 ([5]; Homo sapiens, nM PTX, equivalent doses, FIG. 12B, read-out: IC50 of U87 proliferation): ~0.01 nM | IC50 ([6]; Mus musculus, Panc02, nM PTX, equivalent doses, FIG. 12C, read-out: IC50 of PANC02 proliferation): ~200 nM | IC50 ([6]; Mus musculus, PANC02, 72 hours, bis-cyclic RGD compounds (X = 2), NA = did not reach IC50 in the concentrations used, read-out: IC50 (nM) of PGA- PTX-E-[c(RGDfk)2] (SEQ ID NO: 18) 5 mol % PTX, 3.9 mol % RGD): 200 nM

PGA-PTX-c(RADfk) (cyclo(RAD[dF]K); not fully specified (residue 5); also: polyglutamic acid polymer conjugate, paclitaxel conjugate)
inhibition of HUVEC adhesion to fibrinogen (HUVEC [1]; control compared to bis-cyclic RGD-bearing conjugates): ~20% | inhibition of HUVEC adhesion to fibrinogen (HUVEC [1]; control compared to monocyclic RGD-bearing conjugate): ~50% | inhibition of the formation of tubular structures of HUVEC (HUVEC [4]): about 40% | IC50 ([5]; U87, 72 hours, bis-cyclic RGD compounds (X = 2), NA = did not reach IC50 in the concentrations used, 'a -- b' = bell-shaped curve, read-out: IC50 (nM) of PGA- PTX-E-[c(RGDfk)2] (SEQ ID NO: 18) 5 mol % PTX, 3.9 mol % RGD): 65 nM | IC50 ([6]; PANC02, 72 hours, bis-cyclic RGD compounds (X = 2), NA = did not reach IC50 in the concentrations used, read-out: IC50 (nM) of PGA- PTX-E-[c(RGDfk)2] (SEQ ID NO: 18) 5 mol % PTX, 3.9 mol % RGD): 2600 nM | IC50 ([6]; nM PTX, equivalent doses, FIG. 12C, read-out: IC50 of PANC02 proliferation): ~2000 nM

PGA-c(RADfk) (cyclo(RAD[dF]K); not fully specified (residue 5); also: polyglutamic acid polymer conjugate)
IC50 (HUVEC [2]; 72 hours, bis-cyclic RGD compounds (X = 2), NA = did not reach IC50 in the concentrations used, 'a -- b' = bell-shaped curve, read-out: IC50 (nM) of PGA- PTX-E-[c(RGDfk)2] (SEQ ID NO: 18) 2.6 mol % PTX, 5 mol % RGD): 5000 nM | IC50 (HUVEC [2]; 72 hours, experiment with monocyclic RGD compounds (X = 1), NA = did not reach IC50 in the concentrations used, 'a -- b' = bell-shaped curve, read-out: IC50 (nM) of PGA- PTX-E-c(RGDfk) (SEQ ID NO: 16) 2.1 mol % PTX, 5 mol % RGD): 1000 nM

PGA-c(RADfk)-OG (cyclo(RAD[dF]K); not fully specified (residue 5); also: polyglutamic acid polymer conjugate, Oregon Green label)
time at which conjugate-cell adherence was first observed (αvβ3 integrin receptor; ImageStream 100 imaging flow cytometer): 15 min | extent of binding / uptake by HUVEC (αvβ3 integrin receptor; OG fluorescence, FIGS. 11B, 11C): bound to a much lesser extent

c(RADfk): inactive cyclic peptide RAD, negative control (SEQ ID NO:40) (cyclo(RAD[dF]K); not fully specified (residue 5))
effect of free peptides on HUVEC adhesion (HUVEC [1]): no effect | effect on HUVEC proliferation (HUVEC [2]; FIG. 12A): no effect even at those high concentrations | inhibition of the migration of HUVEC towards VEGF (HUVEC [3]): about 30%

c[Arg-Gly-Asp-Phe-Lys] [E-c(RGDfk)]
effect of free peptides on HUVEC adhesion (HUVEC [1]): completely abrogated HUVEC adhesion
